Measurements: patent US20240383831A1, “ALKOXYLATION OF CANNABIDIOL AND OTHER CANNABINOIDS” (Indorama Ventures Oxides LLC, priority 2021, published 2024)

How the values were obtained:
Format in all cases: physicochemical
pH of 5 wt % in water = assay: pH of 5 wt % in water
From the text: (§1) The alkoxylated product that results from the above reaction conditions can be characterized using common analytical techniques, including hydroxyl value, melting point, unreacted cannabinoid (wt %), cloud point (5 wt % in water), pH (5 wt % in water), ^1H NMR-structural analysis, and appearance. Comparisons between a cannabinoid and its alkoxylated form (such as CBD and e-CBD in EXAMPLE 1 below) are made in Table 1 exemplifying how the e-CBD having a (POE) value of 12 behaves differently as compared to its non-ethoxylated precursor. While these properties are strongly dependent on the number of moles of EO used in relation to the equivalents of CBD, in order to obtain a water soluble or dispersible product, the number of moles of EO in the e-CBD may be between about 1-100, more preferably between about 10-25.

[1] = Water solubility of e-CBD compounds, 5 wt % actives in water
From the text: as §1
By varying the molar ratio of the epoxide-to-cannabinoid starter compound to produce a product having a (POE) value between 7 and 36, the hydrophilicity of the cannabinoid may be tuned (see Table 2). The water solubility of the alkoxylated-CBD compounds (Examples 1-4) was determined at room (25° C.) and physiological (37° C.) temperatures.

[2] = Cloud point, 5 wt % actives in water
From the text: as §1

C=C(C)[C@@H]1CCC(C)=C[C@H]1c1c(O)cc(CCCCC)cc1O [CBD, cannabidiol]
Insoluble: pH (5 wt % in water at 25° C.) (pH of 5 wt % in water) | Water Solubility (5 wt % in water at 37° C.) ([1]; Table 1, 5 wt % in water, 37° C.) | Water Solubility (5 wt % actives in water at 25° C.) ([1]; Table 2, 5 wt % actives in water, 25° C. (room temperature)) | Water Solubility (5 wt % actives in water at 37° C.) ([1]; Table 2, 5 wt % actives in water, 37° C. (physiological temperature)) | Cloud Point (° C., 5 wt % actives in water) [2]
